Results reported in US20260103468A1, “FUSED RING COMPOUND, PHARMACEUTICAL COMPOSITION, AND USE THEREOF” (Hainan Simcere Zaiming Pharmaceutical Co., Ltd., priority 2022, published 2026).

How the values were obtained:
[1] = target: T1, GST-labeled human Cereblon WT (Homo sapiens, UniProt Q96SW2); assay: Cereblon binding experiment (HTRF Human Cereblon Binding Kit); settings: HTRF competition with XL665-labeled lenalidomide tracer; incubated at room temperature for 3 hours; read-out: IC50 (binding ability to Cereblon)
T1 construct: purchased
T1 sequence (Q96SW2 whole entry): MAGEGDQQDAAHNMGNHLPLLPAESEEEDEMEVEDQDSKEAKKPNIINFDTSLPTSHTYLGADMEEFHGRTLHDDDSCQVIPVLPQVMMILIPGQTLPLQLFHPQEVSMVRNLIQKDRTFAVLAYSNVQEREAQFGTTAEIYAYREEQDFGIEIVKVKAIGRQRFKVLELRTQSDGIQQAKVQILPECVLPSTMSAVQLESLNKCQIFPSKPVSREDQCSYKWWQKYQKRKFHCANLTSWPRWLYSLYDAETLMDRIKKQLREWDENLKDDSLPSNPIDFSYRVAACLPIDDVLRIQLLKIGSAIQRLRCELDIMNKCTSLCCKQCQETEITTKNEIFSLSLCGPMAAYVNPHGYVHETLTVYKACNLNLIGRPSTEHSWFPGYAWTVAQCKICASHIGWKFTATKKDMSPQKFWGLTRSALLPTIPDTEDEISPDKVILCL
Description: The detection kit (HTRF Human Cereblon Binding Kits) used in the experiment was a detection method for quantitative measurement of Cereblon WT ligand using HTRF® technology. The detection principle was based on HTRF technology. The specifically labeled GST antibody (Eurum Cryptate, donor) bound to the GST-labeled human Cereblon WT ligand and the XL665-labeled lenalidomide tracer (acceptor) at the same time. The donor was excited with a light source to initiate fluorescence resonance energy transfer (FRET) to the acceptor. The acceptor emitted fluorescence at a specific wavelength of 665 nm. After adding the compound, the compound competed with XL665-labeled lenalidomide to prevent FRET. The FRET signal ratio was inversely proportional to the compound concentration.
Compounds of the present disclosure were dissolved in DMSO, with a mother liquor storage concentration of 10 mM. […] The HTRF signal in each well was measured using an Envision plate reader. […]
The ratio of acceptor and donor emission signals was calculated for each well: […]
Data analysis was performed by GraphPad Prism 9. The concentration-effect curves were obtained using a nonlinear four-parameter fitting, and IC50 of compounds was calculated: […]
The binding ability of the compounds of the present disclosure to Cereblon was determined by the above assay, and the measured IC50 values were shown in Table 1.

GSPT1 protein = target: T2, GSPT1 protein (Homo sapiens, UniProt P15170+Q96SW2); assay: Degradation activity experiment on intracellular GSPT1 protein in CAL51 cells; type: cell-based; settings: anti-GSPT1/anti-α-Tubulin antibody staining in 384-well plate; for DC50: 6 hours; for Dmax: CAL-51, 6 hours, read-out: Maximum degradation rate (%) (GSPT1 protein degradation activity)
T2 construct: endogenous in cells; host or cells: CAL51
T2 sequence (P15170 whole entry): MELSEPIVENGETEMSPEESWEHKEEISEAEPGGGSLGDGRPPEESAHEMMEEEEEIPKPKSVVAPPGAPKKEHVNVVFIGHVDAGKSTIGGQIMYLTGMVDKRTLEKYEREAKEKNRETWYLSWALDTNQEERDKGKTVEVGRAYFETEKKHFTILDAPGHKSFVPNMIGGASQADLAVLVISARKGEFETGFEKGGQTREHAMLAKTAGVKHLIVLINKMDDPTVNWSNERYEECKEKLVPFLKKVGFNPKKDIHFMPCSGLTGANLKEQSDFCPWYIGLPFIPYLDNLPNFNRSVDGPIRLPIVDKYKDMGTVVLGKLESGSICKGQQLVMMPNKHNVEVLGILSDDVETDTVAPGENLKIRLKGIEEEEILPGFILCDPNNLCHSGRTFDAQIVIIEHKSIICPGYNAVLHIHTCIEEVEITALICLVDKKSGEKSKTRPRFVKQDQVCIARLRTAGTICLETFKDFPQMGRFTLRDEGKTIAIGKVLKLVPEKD
T2 sequence (Q96SW2 whole entry): as the sequence (Q96SW2 whole entry) above
T2 sequence (Q16531 whole entry partner): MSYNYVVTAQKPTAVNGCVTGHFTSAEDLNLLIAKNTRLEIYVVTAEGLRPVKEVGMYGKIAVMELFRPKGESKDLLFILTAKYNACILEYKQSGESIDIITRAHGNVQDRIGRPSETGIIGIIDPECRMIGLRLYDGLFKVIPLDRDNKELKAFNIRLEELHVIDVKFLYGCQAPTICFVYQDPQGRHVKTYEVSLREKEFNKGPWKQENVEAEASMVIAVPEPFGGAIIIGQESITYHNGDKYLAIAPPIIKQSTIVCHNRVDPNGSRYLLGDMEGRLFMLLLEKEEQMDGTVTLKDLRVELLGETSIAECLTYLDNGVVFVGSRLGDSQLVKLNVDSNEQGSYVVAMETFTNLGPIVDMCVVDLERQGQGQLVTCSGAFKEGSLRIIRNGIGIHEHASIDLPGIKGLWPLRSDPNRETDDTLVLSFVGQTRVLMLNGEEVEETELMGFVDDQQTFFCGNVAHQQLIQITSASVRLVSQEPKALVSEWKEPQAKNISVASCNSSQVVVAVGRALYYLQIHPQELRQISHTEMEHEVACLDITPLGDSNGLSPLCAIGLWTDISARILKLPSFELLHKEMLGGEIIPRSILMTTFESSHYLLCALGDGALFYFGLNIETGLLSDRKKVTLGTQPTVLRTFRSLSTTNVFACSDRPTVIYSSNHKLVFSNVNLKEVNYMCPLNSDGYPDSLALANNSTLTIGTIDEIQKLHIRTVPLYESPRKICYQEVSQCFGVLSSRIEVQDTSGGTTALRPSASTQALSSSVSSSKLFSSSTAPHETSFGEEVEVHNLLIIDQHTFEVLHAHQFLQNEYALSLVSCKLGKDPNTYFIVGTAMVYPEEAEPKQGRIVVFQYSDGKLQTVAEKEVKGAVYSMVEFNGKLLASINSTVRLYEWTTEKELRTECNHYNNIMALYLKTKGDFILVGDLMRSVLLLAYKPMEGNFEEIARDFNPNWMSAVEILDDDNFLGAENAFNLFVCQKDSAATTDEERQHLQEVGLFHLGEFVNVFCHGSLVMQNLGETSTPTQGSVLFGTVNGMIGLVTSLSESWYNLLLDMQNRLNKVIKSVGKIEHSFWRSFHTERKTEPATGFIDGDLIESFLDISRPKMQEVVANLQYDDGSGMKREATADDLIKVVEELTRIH
Protocol: The medium of CAL51 (CBP60360, Kebai) was removed, and PBS was added for rinsing once, and then digested with trypsin (Trypsin-EDTA (0.25%)) for 5 minutes. After digestion, 10 mL of complete medium (DMEM containing 10% FBS[…]) was added to neutralize trypsin, and the cells were then pipetted, collected, centrifuged at 300 g for 5 min. The cell density was adjusted to 266,667 cells/mL. 30 μL of the cell suspension was added to a 384 well plate. The plate was centrifuged at 300 g for 1 min and then incubated in a cell incubator overnight.
Compounds of the present disclosure were dissolved in DMSO, with a mother liquor storage concentration of 10 mM. The gradient dilution of compound mother liquor was carried out through the dose-response program of the compound dilution and loading instrument. The total experimental volume of the dilution program was 30 μL, with the initial concentration of 100 μM for the tested compound. A4-fold dilution was performed, resulting in 10 concentration points. The positive control compound was CC-885 in Test Example 2, the negative control was DMSO, and the DMSO content of all wells was 0.3%. After the procedure, then the plate was centrifuged and incubated in a carbon dioxide incubator for 6 hours.
After 6 hours of administration, the supernatant was discarded, the cells were washed with 50 μL of cold PBS, and then the cells were fixed with 50 μL/well of 4% paraformaldehyde/universal tissue fixation solution, and incubated at room temperature for 1 hour. The paraformaldehyde was discarded and 50 μL/well PBS-0.1% Triton X-100 was added to permeate cells for 30 minutes. PBS-Triton was discarded, 50 μL/well of blocking buffer (927-70001, Li-COR) was added, and incubated at room temperature for 1 hour. The blocking buffer was removed, and 30 μL/well of rabbit anti-GSPT1 (1: 300) (HPA052488, Sigma), mouse anti-α-Tubulin (1: 2000) (T6074, Sigma) primary antibody mixed antibody was added, and incubated at 4° C. overnight. The well was washed with 50 μL/well PBST (PBS containing 0.1% Tween-20) and soaked for 10 minutes per round for 4 times. 30 μL/well of goat anti-mouse 680RD (P/N 925-68070, Li-COR) and goat anti-rabbit 800CW (P/N 925-32211, Li-COR) secondary antibody mixture (1: 5000) was added and incubated at room temperature away from light for 1-1.5 hours. The well was washed with 50 μL/well PBST and soaked for 10 min per round for 4 times. The centrifuge plate was turned upside down, covered with toilet paper, then centrifuged at 1000 rpm/min for 1 minute, and the bottom of the plate was dried. A 384-well plate was scanned with an Azure WB imaging system (Sapphire) and the data was read.
The GSPT1 protein degradation activity of the compounds of the present disclosure in CAL51 cells was measured by the above assay, and the protein degradation rate of each sample well was calculated based on the raw data.
[formula] • Sample reading: refers to the signal value of the experimental group; • DSMO reference mean reading; refers to the mean signal value of the DSMO control group. No test compound was added to the […], and other operations were consistent with those of the experimental group.
Data analysis was performed by GraphPad Prism 9. The concentration-effect curves were obtained using a nonlinear four-parameter fitting, and DC50 of compounds was calculated:
[formula] • Wherein: • X: Log of the compound concentration. • Y: degradation rate (%); • Bottom is the minimum percent degradation: • Top is the maximum percent degradation: • HillSlope is the slope coefficient of the curve.

CAL51 cells = assay: Anti-proliferative activity experiment on CAL51 cells (CellTiter-Glo 3D); type: cell-based; settings: Homo sapiens, CAL-51, 72 h, CAL51 cell spheroid, incubated 3 days
Protocol: The medium of target cells CAL51 (CBP60360, Kebai) was removed, and PBS was added for rinsing once, and then digested with trypsin (Trypsin-EDTA (0.25%)) for 5 minutes. After digestion, 10 mL of complete medium (DMEM containing 10% FBS) was added to neutralize trypsin, and the cells were pipetted and collected, then centrifuged at 300 g for 5 min, counted. The cell density was adjusted to 40,000 cells/mL. 90 μL cell suspension was added to a 96-well low adsorption plate. 200 μL of PBS was added to the edge wells. The plate was centrifuged at 300 g for 5 minutes to form cell spheroid, which were then incubated in a cell incubator overnights. […]
The cells were removed from the incubator and returned to room temperature for […]. 50 μL of CellTiter-Glo® 3D Cell Viability Assay reagent was added, and the plate was shaked and mixed well for 10 minutes, and then the plate was read with an Envision plate reader.
The anti-proliferative activity of the compound of the present disclosure on CAL51 cells was measured by the above assay, and the cell growth inhibition rate of each sample well was calculated based on the raw data.
[formula] • Sample reading: refers to the signal value of the experimental group; • DMSO reference mean reading: refers to the mean signal value of the DMSO control group. […]

Structure (SMILES)	IC50 [1] [nM]	DC50 (GSPT1 protein) [nM]	Dmax (GSPT1 protein) [%]	IC50 (CAL51 cells) [nM]
O=C1CCC(N2Cc3nc4ccccc4n3C2=O)C(=O)N1 (centres unmarked) [Compound 14, 3-(1-oxo-1H-benzo [d]imidazo [1,5-a]imidazol-2 (3H)-yl) piperidine-2,6-dione]	1000 to 10000			
CNc1ccc(NC(=O)OCc2ccc3c(c2)cc2n3C(=O)N(C3CCC(=O)NC3=O)C2)cc1Cl (centres unmarked) [Compound 8, (2-(2,6-dioxopiperidin-3-yl)-3-oxo-2,3-dihydro-1H-imidazo [1,5-a]indol-7-yl) methyl-(3-chloro-4-(methylamino)phenyl) carbamate]		13	94.6	
Cc1ccc(NC(=O)OCc2cccc3c2cc2n3C(=O)N(C3CCC(=O)NC3=O)C2)cc1Cl (centres unmarked) [Compound 13, 2-(2,6-dioxopiperidin-3-yl)-3-oxo-2,3-dihydro-1H-imidazo [1,5-a] indol-8-yl) methyl (3-chloro-4-methylphenyl) carbamate]		135	96.3	
CNCCOCCc1cc(NC(=O)OCc2ccc3c(c2)cc2n3C(=O)N(C3CCC(=O)NC3=O)C2)ccc1Cl (centres unmarked) [Compound 9, (2-(2,6-dioxopiperidin-3-yl)-3-oxo-2,3-dihydro-1H-imidazo [1,5-a]indol-7-yl) methyl-(4-chloro-3-(2-(2-(methylamino)ethoxy)ethyl)phenyl) carbamate]		1460	69.6	
CNc1cc(C#CC(=O)NCc2ccc3c(c2)cc2n3C(=O)N(C3CCC(=O)NC3=O)C2)ccc1C (centres unmarked) [Compound 4, N-((2-(2,6-dioxopiperidin-3-yl)-3-oxo-2,3-dihydro-1H-imidazo [1,5-a]indol-7-yl)methyl)-3-(4-methyl-3-(methylamino)phenyl) propinamide]		144	85.3	
O=C1CCC(N2Cc3cc4cc(COC(=O)Nc5cc(OC(F)(F)F)ccc5F)ccc4n3C2=O)C(=O)N1 (centres unmarked) [Compound 5, 2-(2,6-dioxopiperidin-3-yl)-3-oxo-2,3-dihydro-1H-imidazo [1,5-a] indol-7-yl) methyl (2-fluoro-5-trifluoromethoxy) phenyl) carbamate]		20	96.7	
O=C1CCC(N2Cc3cc4ccccc4n3C2=O)C(=O)N1 (centres unmarked) [Compound 1, 3-(3-oxo-1H-imidazo [1,5-a]indol-2 (3H)-yl) piperidine-2,6-dione]	1000 to 10000			
Cc1ccc(NC(=O)OCc2ccc3c(c2)cc2n3C(=O)N(C3CCC(=O)NC3=O)C2)cc1Cl (centres unmarked) [Compound 3, (2-(2,6-dioxopiperidin-3-yl)-3-oxo-2,3-dihydro-1H-imidazo [1,5-a]indol-7-yl) methyl-(3-chloro-4-methylphenyl) carbamate]		25.4	98.3	39
Cc1ccc(NC(=O)NCc2ccc3c(c2)cc2n3C(=O)N(C3CCC(=O)NC3=O)C2)cc1Cl (centres unmarked) [Compound 2, 1-(3-chloro-4-methylphenyl)-3-((2-(2,6-dioxopiperidin-3-yl)-3-oxo-2,3-dihydro-1H-imidazo [1,5-a]indol-7-yl)methyl) urea]		86.3	95.4	
